Data on 16 molecules can be found in patent US8927717B1, “Thiochromeno[2,3-c]quinolin-12-one derivatives, preparation method and application thereof” (National Defense Medical Center, priority 2014, dated 2015).

A word on the melting point: it is the temperature of the solid-liquid transition. `CCN1CCN(c2nc3ccccc3c3c(=O)c4cc(Cl)ccc4sc23)CC1` [Compound 9, 10-Chloro-6-(4-ethylpiperazin-1-yl)-12H-thiochromeno[2,3-c]quinolin-12-one] came in with a melting point of 196 to 198 °C. Under `O=c1c2cc(Cl)ccc2sc2c(N3CCSCC3)nc3ccccc3c12` [Compound 14, 10-Chloro-6-thiomorpholino-12H-thiochromeno[2,3-c]quinolin-12-one] stands 219 to 220 °C; under `O=c1c2cc(Cl)ccc2sc2c(N3CCCCC3)nc3ccccc3c12` [Compound 15, 10-Chloro-6-(piperidin-1-yl)-12H-thiochromeno[2,3-c]quinolin-12-one], 187 to 188 °C; under `O=c1c2cc(Cl)ccc2sc2c(N3CCC(O)CC3)nc3ccccc3c12` [Compound 16, 10-Chloro-6-(4-hydroxypiperidin-1-yl)-12H-thiochromeno[2,3-c]quinolin-12-one], 224 to 225 °C. For `O=c1c2cc(Cl)ccc2sc2c(N3CCC(Cc4ccccc4)CC3)nc3ccccc3c12` [Compound 17, 6-(4-Benzylpiperidin-1-yl)-10-chloro-12H-thiochromeno[2,3-c]quinolin-12-one], the melting point lay in the range of 184 to 185 °C. In the case of `O=c1c2cc(Cl)ccc2sc2c(N3CCC(N4CCCCC4)CC3)nc3ccccc3c12` [Compound 18, 6-([1,4′-Bipiperidin]-1′-yl)-10-chloro-12H-thiochromeno[2,3-c]quinolin-12-one], the melting point lay within 187 to 189 °C. With `O=c1c2cc(Cl)ccc2sc2c(N3CCC(CCCC4CCNCC4)CC3)nc3ccccc3c12` [Compound 19, 10-Chloro-6-(4-(3-(piperidin-4-yl)propyl)piperidin-1-yl)-12H-thiochromeno[2,3-c]quinolin-12-one] the figure was 164 to 165 °C; with `O=c1c2cc(Cl)ccc2sc2c(N3CCCC3)nc3ccccc3c12` [Compound 20, 10-Chloro-6-(pyrrolidin-1-yl)-12H-thiochromeno[2,3-c]quinolin-12-one], 170 to 171 °C; with `O=C1CCCCN1c1nc2ccccc2c2c(=O)c3cc(Cl)ccc3sc12` [Compound 21, 10-chloro-6-(2-oxopiperidin-1-yl)-12H-thiochromeno[2,3-c]quinolin-12-one], 258 to 261 °C.

As to `CCCNc1nc2ccccc2c2c(=O)c3cc(Cl)ccc3sc12` [Compound N3, 10-Chloro-6-propylamino-12H-thiochromeno[2,3-c]quinolin-12-one], the melting point lay in the range of 178 to 179 °C.

`CCCCNc1nc2ccccc2c2c(=O)c3cc(Cl)ccc3sc12` [Compound N4, 6-(Butylamino)-10-chloro-12H-thiochromeno[2,3-c]quinolin-12-one] returned a melting point of 147 to 149 °C.

In turn, `CC(C)CNc1nc2ccccc2c2c(=O)c3cc(Cl)ccc3sc12` [Compound N5, 10-Chloro-6-isobutylamino-12H-thiochromeno[2,3-c]quinolin-12-one] yielded a melting point of 159 to 160 °C. Molecule `O=c1c2cc(Cl)ccc2sc2c(NC3Cc4ccccc4C3)nc3ccccc3c12` [Compound N20, 10-Chloro-6-((2,3-dihydro-1H-inden-2-yl)amino)-12H-thiochromeno[2,3-c]quinolin-12-one] registered a melting point of 251 to 252 °C. Under `O=c1c2cc(Cl)ccc2sc2c(NC3CCN(Cc4ccccc4)CC3)nc3ccccc3c12` [Compound N22, 6-((1-Benzylpiperidin-4-yl)amino)-10-chloro-12H-thiochromeno[2,3-c]quinolin-12-one] stands 194 to 196 °C; under `O=c1c2cc(Cl)ccc2sc2c(NCc3cccs3)nc3ccccc3c12` [Compound N23, 10-Chloro-6-((thiophen-2-ylmethyl)amino)-12H-thiochromeno[2,3-c]quinolin-12-one], 178 to 180 °C; under `O=c1c2cc(Cl)ccc2sc2c(NCC3CCCCC3)nc3ccccc3c12` [Compound N24, 10-Chloro-6-((cyclohexylmethyl)amino)-12H-thiochromeno[2,3-c]quinolin-12-one], 165 to 166 °C.
